Measured values reported in BigSolDB 2.1.

NS(=O)(=O)c1ccccc1
Details | solubility (mole fraction)
in acetone, 273.15 K | 0.117
in acetone, 279.15 K | 0.123
in acetone, 283.45 K | 0.13
in acetone, 288.95 K | 0.138
in acetone, 293.25 K | 0.145
in acetone, 298.85 K | 0.156
in acetone, 303.15 K | 0.165
in acetone, 308.15 K | 0.176
in acetone, 313.15 K | 0.188
in acetone, 317.65 K | 0.201
in acetone, 323.15 K | 0.217
in acetonitrile, 273.15 K | 0.0348
in acetonitrile, 279.15 K | 0.0396
in acetonitrile, 283.45 K | 0.0446
in acetonitrile, 288.95 K | 0.0507
in acetonitrile, 293.25 K | 0.0568
in acetonitrile, 298.85 K | 0.0649
in acetonitrile, 303.15 K | 0.0723
in acetonitrile, 308.15 K | 0.0817
in acetonitrile, 313.15 K | 0.0928
in acetonitrile, 317.65 K | 0.104
in acetonitrile, 323.15 K | 0.118
in cyclohexanone, 273.15 K | 0.114
in cyclohexanone, 279.15 K | 0.12
in cyclohexanone, 283.85 K | 0.126
in cyclohexanone, 289.15 K | 0.134
in cyclohexanone, 293.75 K | 0.142
in cyclohexanone, 299.15 K | 0.151
in cyclohexanone, 303.75 K | 0.161
in cyclohexanone, 309.15 K | 0.171
in cyclohexanone, 313.35 K | 0.181
in cyclohexanone, 319.15 K | 0.195
in cyclohexanone, 324.45 K | 0.21
in cyclopentanone, 273.15 K | 0.14
in cyclopentanone, 279.15 K | 0.146
in cyclopentanone, 283.85 K | 0.152
in cyclopentanone, 289.15 K | 0.16
in cyclopentanone, 293.75 K | 0.167
in cyclopentanone, 299.15 K | 0.177
in cyclopentanone, 303.75 K | 0.187
in cyclopentanone, 309.15 K | 0.201
in cyclopentanone, 313.35 K | 0.21
in cyclopentanone, 319.15 K | 0.228
in cyclopentanone, 324.45 K | 0.245
in dichloromethane, 273.15 K | 0.00134
in dichloromethane, 279.15 K | 0.00175
in dichloromethane, 283.45 K | 0.00214
in dichloromethane, 288.95 K | 0.00278
in dichloromethane, 293.25 K | 0.00335
in dichloromethane, 298.85 K | 0.00424
in dichloromethane, 303.15 K | 0.00495
in dichloromethane, 308.15 K | 0.00602
in dichloromethane, 312.15 K | 0.00691
in ethanol, 273.15 K | 0.0159
in ethanol, 279.15 K | 0.0182
in ethanol, 283.45 K | 0.0199
in ethanol, 288.95 K | 0.0231
in ethanol, 293.25 K | 0.0261
in ethanol, 298.85 K | 0.0307
in ethanol, 303.15 K | 0.0355
in ethanol, 308.15 K | 0.041
in ethanol, 313.15 K | 0.048
in ethanol, 317.65 K | 0.0547
in ethanol, 323.15 K | 0.0635
in ethyl acetate, 273.15 K | 0.0325
in ethyl acetate, 279.15 K | 0.036
in ethyl acetate, 283.45 K | 0.0389
in ethyl acetate, 288.95 K | 0.0429
in ethyl acetate, 293.25 K | 0.0467
in ethyl acetate, 298.85 K | 0.0517
in ethyl acetate, 303.15 K | 0.0563
in ethyl acetate, 308.15 K | 0.0615
in ethyl acetate, 313.15 K | 0.0682
in ethyl acetate, 317.65 K | 0.0736
in ethyl acetate, 323.15 K | 0.082
in ethyl formate, 273.15 K | 0.018
in ethyl formate, 279.15 K | 0.0204
in ethyl formate, 283.45 K | 0.0228
in ethyl formate, 288.95 K | 0.026
in ethyl formate, 293.25 K | 0.0289
in ethyl formate, 298.85 K | 0.0327
in ethyl formate, 303.15 K | 0.0367
in ethyl formate, 308.15 K | 0.0416
in ethyl formate, 313.15 K | 0.047
in ethyl formate, 317.65 K | 0.0526
in ethyl formate, 323.15 K | 0.0596
in isobutanol, 273.15 K | 0.00387
in isobutanol, 279.15 K | 0.0045
in isobutanol, 283.85 K | 0.00537
in isobutanol, 289.15 K | 0.00666
in isobutanol, 293.75 K | 0.00808
in isobutanol, 299.15 K | 0.00996
in isobutanol, 303.75 K | 0.012
in isobutanol, 309.15 K | 0.0148
in isobutanol, 313.35 K | 0.0176
in isobutanol, 319.15 K | 0.0214
in isobutanol, 324.45 K | 0.0255
in isopentanol, 273.15 K | 0.00419
in isopentanol, 279.15 K | 0.00488
in isopentanol, 283.85 K | 0.00557
in isopentanol, 289.15 K | 0.00683
in isopentanol, 293.75 K | 0.00804
in isopentanol, 299.15 K | 0.00999
in isopentanol, 303.75 K | 0.0119
in isopentanol, 309.15 K | 0.0148
in isopentanol, 313.35 K | 0.0172
in isopentanol, 319.15 K | 0.021
in isopentanol, 324.45 K | 0.0249
in isopropanol, 273.15 K | 0.0076
in isopropanol, 279.15 K | 0.00834
in isopropanol, 283.85 K | 0.00964
in isopropanol, 289.15 K | 0.0119
in isopropanol, 293.75 K | 0.0141
in isopropanol, 299.15 K | 0.0172
in isopropanol, 303.75 K | 0.0213
in isopropanol, 309.15 K | 0.0261
in isopropanol, 313.35 K | 0.0305
in isopropanol, 319.15 K | 0.0371
in isopropanol, 324.45 K | 0.0444
in methanol, 273.15 K | 0.0295
in methanol, 279.15 K | 0.0325
in methanol, 283.45 K | 0.0357
in methanol, 288.95 K | 0.041
in methanol, 293.25 K | 0.046
in methanol, 298.85 K | 0.0536
in methanol, 303.15 K | 0.061
in methanol, 308.15 K | 0.0699
in methanol, 313.15 K | 0.0808
in methanol, 317.65 K | 0.0923
in methanol, 323.15 K | 0.107
in methyl acetate, 273.15 K | 0.0423
in methyl acetate, 279.15 K | 0.0467
in methyl acetate, 283.45 K | 0.0503
in methyl acetate, 288.95 K | 0.0556
in methyl acetate, 293.25 K | 0.0606
in methyl acetate, 298.85 K | 0.0677
in methyl acetate, 303.15 K | 0.0743
in methyl acetate, 308.15 K | 0.0823
in methyl acetate, 313.15 K | 0.0915
in methyl acetate, 317.65 K | 0.101
in methyl acetate, 323.15 K | 0.113
in n-butanol, 273.15 K | 0.00578
in n-butanol, 279.15 K | 0.00679
in n-butanol, 283.85 K | 0.00798
in n-butanol, 289.15 K | 0.00946
in n-butanol, 293.75 K | 0.011
in n-butanol, 299.15 K | 0.0135
in n-butanol, 303.75 K | 0.016
in n-butanol, 309.15 K | 0.0195
in n-butanol, 313.35 K | 0.0226
in n-butanol, 319.15 K | 0.0276
in n-butanol, 324.45 K | 0.0323
in n-pentanol, 273.15 K | 0.00474
in n-pentanol, 279.15 K | 0.00538
in n-pentanol, 283.85 K | 0.00616
in n-pentanol, 289.15 K | 0.00727
in n-pentanol, 293.75 K | 0.00894
in n-pentanol, 299.15 K | 0.0111
in n-pentanol, 303.75 K | 0.0131
in n-pentanol, 309.15 K | 0.0164
in n-pentanol, 313.35 K | 0.0188
in n-pentanol, 319.15 K | 0.0232
in n-pentanol, 324.45 K | 0.0278
in n-propanol, 273.15 K | 0.00806
in n-propanol, 279.15 K | 0.00907
in n-propanol, 283.85 K | 0.0103
in n-propanol, 289.15 K | 0.0122
in n-propanol, 293.75 K | 0.0143
in n-propanol, 299.15 K | 0.0175
in n-propanol, 303.75 K | 0.0208
in n-propanol, 309.15 K | 0.0254
in n-propanol, 313.35 K | 0.0293
in n-propanol, 319.15 K | 0.036
in n-propanol, 324.45 K | 0.0423
